Results on one compound are retold here after patent US6379692B1, “Pharmaceutical composition comprising a suspension for the active ingredient” (Chauvin Pharmaceuticals Limited, priority 1997, dated 2002).

This data set in a line: particle size by Coulter counter (100 μm tube). The settings on record: without the use of a viscosity-enhancing agent. The data set is classed as physicochemical. The text has this:
(iii) bringing the salt solution, the aqueous suspension or dispersion and the acid into admixture whereby there is formed a precipitate of microparticles of the active ingredient wherein 90% of the microparticles are of a diameter less than about 10 μm (number) when measured by a Coulter counter (100 μm tube).
Step (iii) may be undertaken by first bringing the salt solution into admixture with the aqueous suspension or dispersion followed by addition of the acid. However, preferably, the acid is added to the aqueous suspension/dispersion prior to addition thereto of the salt solution. Preferably, more base is then added to the suspension to neutralize the hydrophilic polymer(s). […]
However, in contrast to when pre-micronized active ingredient is used, the process of the present invention whereby such fine particles are produced in situ by precipitation results in a better distribution of particle size, with the D90 at room temperature being of the order of 5-10 μm (number), preferably 7-9 μm (number) or 10-16 μm (volume), whereas for pre-micronized drug the D90 is of the order of 5-10 μm (number) or 21-24 μm (volume). […] The term “D90” as used herein with respect to particle size distribution means that 90% of the particles have a diameter, when measured by a Coulter counter (100 μm tube), of less than the quoted figure. […]

`Nc1nc2c(ncn2COCCO)c(=O)[nH]1` [aciclovir, 2-amino-1,9-dihydro-9-[(2-hydroxyethoxy)methyl]6H-purin-6-one]: the “length of needle-shaped crystals precipitated” value is “greater than 30 μm”.
